Laboratory results reported in article PMC9492542, “Brain-restricted mTOR inhibition with binary pharmacology” (Nature, 2022).
Where “and” joins values, the source holds several entries; their conditions need not be identical. Equal entries are not always repeated.

Experiments:
K562 CRISPRi cells = experiment: Cell viability assay (CellTiter-Glo, 72 h) in K562 CRISPRi cells with sgRNA knockdown of FKBP12
Protocol: Knockdown cells were generated by transducing K562 CRISPRi (sgRNA^–) cells with the sgRNA expression vectors at a multiplicity of infection of less than 1 (20–40% transduction rate) with 8 μg ml^–1 polybrene.
Cells were seeded into 96-well white flat bottom plates (1,000 cells per well) (Corning) and incubated overnight. […] Cell viability was assessed using a commercial CellTiter-Glo (CTG) luminescence-based assay (Promega). In brief, the 96-well plates were equilibrated to room temperature before the addition of diluted CTG reagent (100 μl) (1:4 CTG reagent:PBS). Plates were placed on an orbital shaker for 30 min before recording luminescence using a Spark 20M (TECAN) plate reader.

human PBMCs = experiment: Proliferation of anti-CD3/anti-CD28 stimulated PBMCs (120 h); assay type: cell-based; set-up: PBMC cell proliferation: unit not given here

CO[C@H]1C[C@@H]2CC[C@@H](C)[C@@](O)(O2)C(=O)C(=O)N2CCCC[C@H]2C(=O)O[C@H]([C@H](C)C[C@@H]2CC[C@@H](OCCOCc3cn(CCOCCOCCOCCOCCOCCOCCOCCOCCC(=O)NCCCCn4nc(-c5ccc6oc(N)nc6c5)c5c(N)ncnc54)nn3)[C@H](OC)C2)CC(=O)[C@H](C)/C=C(\C)[C@@H](O)[C@@H](OC)C(=O)[C@H](C)C[C@H](C)/C=C/C=C/C=C/1C [RapaLink-1]
cell growth (K562-dCas9-KRAB) (K562 CRISPRi cells; FKBP12 sgRNA-1, 0.0152416 nM): 105.506 and 102.628 and 96.1562 | cell growth (K562-dCas9-KRAB) (K562 CRISPRi cells; FKBP12 sgRNA-1, 0.0457247 nM): 105.668 and 102.078 and 85.8686 | cell growth (K562-dCas9-KRAB) (K562 CRISPRi cells; FKBP12 sgRNA-1, 1.23457 nM): 94.9833 and 94.8438 and 86.0533 | cell growth (K562-dCas9-KRAB) (K562 CRISPRi cells; FKBP12 sgRNA-1, 3.7037 nM): 89.3098 and 83.2596 and 72.1854 | cell growth (K562-dCas9-KRAB) (K562 CRISPRi cells; FKBP12 sgRNA-1, 11.1111 nM): 53.7829 and 50.941 and 46.1745 | cell growth (K562-dCas9-KRAB) (K562 CRISPRi cells; FKBP12 sgRNA-1, 33.3333 nM): 28.0164 and 26.1284 and 21.6828 | cell growth (K562-dCas9-KRAB) (K562 CRISPRi cells; FKBP12 sgRNA-2, 0.0152416 nM): 97.2191 and 100.632 and 101.126 | cell growth (K562-dCas9-KRAB) (K562 CRISPRi cells; FKBP12 sgRNA-2, 0.0457247 nM): 97.7063 and 99.4263 and 97.7491 | cell growth (K562-dCas9-KRAB) (K562 CRISPRi cells; FKBP12 sgRNA-2, 0.137174 nM): 95.7095 and 97.9482 and 99.6852 | cell growth (K562-dCas9-KRAB) (K562 CRISPRi cells; FKBP12 sgRNA-2, 1.23457 nM): 93.7321 and 94.186 and 93.5157 | cell growth (K562-dCas9-KRAB) (K562 CRISPRi cells; FKBP12 sgRNA-2, 3.7037 nM): 38.5541 and 41.9621 and 38.7138 | cell growth (K562-dCas9-KRAB) (K562 CRISPRi cells; FKBP12 sgRNA-2, 11.1111 nM): 19.9055 and 20.364 and 21.1046 | cell growth (K562-dCas9-KRAB) (K562 CRISPRi cells; FKBP12 sgRNA-2, 33.3333 nM): 15.1403 and 14.2518 and 15.8 | cell growth (K562-dCas9-KRAB) (K562 CRISPRi cells; GAL4-4 sgRNA, 0.0152416 nM): 101.863 and 99.8606 and 100.119 | cell growth (K562-dCas9-KRAB) (K562 CRISPRi cells; GAL4-4 sgRNA, 0.0457247 nM): 103.056 and 100.129 and 98.9614 | cell growth (K562-dCas9-KRAB) (K562 CRISPRi cells; GAL4-4 sgRNA, 0.137174 nM): 97.8709 | cell growth (K562-dCas9-KRAB) (K562 CRISPRi cells; GAL4-4 sgRNA, 1.23457 nM): 71.632 and 70.4313 and 67.4428 | cell growth (K562-dCas9-KRAB) (K562 CRISPRi cells; GAL4-4 sgRNA, 3.7037 nM): 17.746 and 15.8338 and 15.2774 | cell growth (K562-dCas9-KRAB) (K562 CRISPRi cells; GAL4-4 sgRNA, 11.1111 nM): 13.9448 and 13.723 and 15.0323 | cell growth (K562-dCas9-KRAB) (K562 CRISPRi cells; GAL4-4 sgRNA, 33.3333 nM): 13.6321 and 13.22 and 14.5715 | cellular activity after CRISPRi knockdown of FKBP12 (K562 CRISPRi cells; K562 dCas9-KRAB, two sgRNAs): drastically impeded its cellular activity | cell growth (K562-dCas9-KRAB) (K562 CRISPRi cells; No sgRNA + 10 μM FK506, 0.0152416 nM): 90.7304 and 95.49 and 92.3837 | cell growth (K562-dCas9-KRAB) (K562 CRISPRi cells; No sgRNA + 10 μM FK506, 0.0457247 nM): 91.7724 and 93.2742 and 91.026 | cell growth (K562-dCas9-KRAB) (K562 CRISPRi cells; No sgRNA + 10 μM FK506, 0.137174 nM): 91.4157 and 89.1222 and 88.9009 | cell growth (K562-dCas9-KRAB) (K562 CRISPRi cells; No sgRNA + 10 μM FK506, 1.23457 nM): 91.763 and 90.0617 and 88.7417 | cell growth (K562-dCas9-KRAB) (K562 CRISPRi cells; No sgRNA + 10 μM FK506, 3.7037 nM): 89.7918 and 91.174 and 89.4532 | cell growth (K562-dCas9-KRAB) (K562 CRISPRi cells; No sgRNA + 10 μM FK506, 11.1111 nM): 86.3008 and 85.9782 and 86.561 | cell growth (K562-dCas9-KRAB) (K562 CRISPRi cells; No sgRNA + 10 μM FK506, 33.3333 nM): 70.168 and 69.6522 and 67.2473 | cell growth (K562-dCas9-KRAB) (K562 CRISPRi cells; No sgRNA, 0.0152416 nM): 98.221 and 102.996 and 99.7082 | cell growth (K562-dCas9-KRAB) (K562 CRISPRi cells; No sgRNA, 0.0457247 nM): 104.804 and 96.4373 and 102.095 | cell growth (K562-dCas9-KRAB) (K562 CRISPRi cells; No sgRNA, 0.137174 nM): 98.0154 and 97.5628 and 102.366 | cell growth (K562-dCas9-KRAB) (K562 CRISPRi cells; No sgRNA, 1.23457 nM): 69.0104 and 68.6714 and 68.1063 | cell growth (K562-dCas9-KRAB) (K562 CRISPRi cells; No sgRNA, 3.7037 nM): 15.0031 and 16.0719 and 14.3485 | cell growth (K562-dCas9-KRAB) (K562 CRISPRi cells; No sgRNA, 11.1111 nM): 13.4023 and 12.2624 and 12.6642 | cell growth (K562-dCas9-KRAB) (K562 CRISPRi cells; No sgRNA, 33.3333 nM): 12.1483 and 12.1908 and 11.8583 | PBMC cell proliferation (human PBMCs; 0.005081 nM RapaLink-1, +10 μM RapaBlock): 104.4 and 111.7 and 94.4 | PBMC cell proliferation (human PBMCs; 0.005081 nM RapaLink-1, No RapaBlock): 115.8 and 102.5 and 98.3 | PBMC cell proliferation (human PBMCs; 0.015242 nM RapaLink-1, +10 μM RapaBlock): 110 and 113.9 and 99.3 | PBMC cell proliferation (human PBMCs; 0.015242 nM RapaLink-1, No RapaBlock): 121.8 and 109.1 and 110.9 | PBMC cell proliferation (human PBMCs; 0.045725 nM RapaLink-1, +10 μM RapaBlock): 112.2 and 110.5 and 104.3 | PBMC cell proliferation (human PBMCs; 0.045725 nM RapaLink-1, No RapaBlock): 121.5 and 108 and 104.7 | PBMC cell proliferation (human PBMCs; 0.137174 nM RapaLink-1, +10 μM RapaBlock): 110.3 and 116.4 and 104.2 | PBMC cell proliferation (human PBMCs; 0.137174 nM RapaLink-1, No RapaBlock): 113.1 and 112.8 and 102.9 | PBMC cell proliferation (human PBMCs; 0.411523 nM RapaLink-1, +10 μM RapaBlock): 114.7 and 112.8 and 107.7 | PBMC cell proliferation (human PBMCs; 0.411523 nM RapaLink-1, No RapaBlock): 98.2 and 98.7 and 94.9 | PBMC cell proliferation (human PBMCs; 1.23457 nM RapaLink-1, +10 μM RapaBlock): 109.6 and 111.8 and 107 | PBMC cell proliferation (human PBMCs; 1.23457 nM RapaLink-1, No RapaBlock): 44.3 and 45.5 and 45.3 | PBMC cell proliferation (human PBMCs; 3.7037 nM RapaLink-1, +10 μM RapaBlock): 105.8 and 104.9 and 94.5 | PBMC cell proliferation (human PBMCs; 3.7037 nM RapaLink-1, No RapaBlock): 29.2 and 28.4 and 25.5 | PBMC cell proliferation (human PBMCs; 11.1111 nM RapaLink-1, +10 μM RapaBlock): 84.3 and 94.6 and 81 | PBMC cell proliferation (human PBMCs; 11.1111 nM RapaLink-1, No RapaBlock): 13.5 and 22.4 and 19.1
